Reference: patent publication EP3575287A1, “INHIBITORS OF N-ACYLPHOSPHATIDYLETHANOLAMINE PHOSPHOLIPASE D (NAPE-PLD)” (Universiteit Leiden, priority 2018, dated 2019)

biological target: T1, human NAPE-PLD (Homo sapiens, UniProt Q6IQ20); assay: In vitro NAPE-PLD activity assay; type: biochemical; details: membrane protein fraction of HEK293T cells overexpressing human NAPE-PLD; substrate PED6 1 µM; 30 minutes preincubation at 37 °C
T1 construct: Full length human cDNA NAPE-PLD was obtained from Natsuo Ueda; made in house; host or cells: HEK293T cells, transient transfection (pcDNA3.1); membrane fraction used
Method: Full length human cDNA NAPE-PLD was obtained from Natsuo Ueda^1 and cloned into mammalian expression vector pcDNA3.1, containing a C-terminal Flag-tag and genes for ampicillin and neomycin resistance. All plasmids were grown in XL-10 Z-competent cells and prepped (Maxi Prep, Qiagen). Sequence analysis for the confirmation of the sequences was performed at the Leiden Genome Technology Centre.
HEK293T were cultured at 37 °C and 7% CO2 in DMEM (Sigma Aldrich, D6546) with glutamax, penicillin (100 µg/ml), streptomycin (100 µg/ml) and 10% New Born Calf Serum iron supplemented (Hyclone SH30072.03). Cells were passaged twice a week to appropriate confluence.
24 hours before transfection 10^7 cells are seeded on a 15 cm dish. Two hours before transfection medium is refreshed, low volume. Transfection is performed with PEI in a ratio of 3:1 with human NAPE-PLD or Mock pcDNA3.1 Neo, 20 µg per dish. Medium is refreshed after 24 hours and cells are harvested after 72 hours.
Cell pellets are re-suspended in lysis buffer: 20 mM Hepes, 2 mM DTT, 0.25 M sucrose, 1 mM MgCl2, 2.5 U/ml benzonase and incubated 30 minutes on ice. The cytosolic fraction (supernatant) is separated from the membranes by ultra-centrifugation (32000 rpm for 30 minutes 100,000g). The pellet is resuspended in storage buffer: 20 mM Hepes, 2 mM DTT (membrane fraction). All samples are stored at -80°C. Enzyme concentrations are determined using a Bradford assay.
The NAPE-PLD activity assay is based on a previously reported method with small alterations.^2 The membrane protein fraction from transient overexpression of human NAPE-PLD in HEK293T cells was diluted to 0.4 mg/ml in assay buffer: 50 mM Tris-HCl (pH 7.5), 0.02% Triton X-100, 150 mM NaCl. The substrate PED6 (Invitrogen) 1 mM stock was consecutively diluted in DMSO (10x) and in assay buffer (10x) to make a 10 µM working solution. […] The assay is performed in a dark Greiner 96 wells plate, end volume 100 µl. The compound or DMSO is incubated with membrane protein lysate (final concentration 0.04 mg/ml) for 30 minutes at 37 °C. […] Mock lysate with DMSO is used for background substraction. IC50 curves are generated used Graphpad Prism v6.

T1 sequence (Q6IQ20 whole entry): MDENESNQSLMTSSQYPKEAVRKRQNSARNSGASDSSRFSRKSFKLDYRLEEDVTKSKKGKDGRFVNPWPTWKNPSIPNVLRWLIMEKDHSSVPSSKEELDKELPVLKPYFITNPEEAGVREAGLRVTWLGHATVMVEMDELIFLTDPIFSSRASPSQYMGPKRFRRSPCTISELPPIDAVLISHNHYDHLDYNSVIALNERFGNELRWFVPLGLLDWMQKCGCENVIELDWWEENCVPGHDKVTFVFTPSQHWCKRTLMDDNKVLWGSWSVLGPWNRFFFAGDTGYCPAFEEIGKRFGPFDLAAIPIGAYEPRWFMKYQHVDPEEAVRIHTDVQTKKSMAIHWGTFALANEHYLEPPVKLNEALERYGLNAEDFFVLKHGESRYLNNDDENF

Row | SMILES | IC50 [nM]
1 | CN(CCc1ccccc1)c1nc(Oc2cccnc2)cc(C(=O)NCC2CC2)n1 [Example 1, N-(cyclopropylmethyl)-2-(methyl(phenethyl)amino)-6-(pyridin-3-yloxy)pyrimidine-4-carboxamide] | 5250
2 | CN(CCc1ccccc1)c1nc(C(=O)NCC2CC2)cc(N2CCC(F)(F)CC2)n1 [Example 2, N-(cyclopropylmethyl)-6-(4,4-difluoropiperidin-1-yl)-2-(methyl(phenethyl)amino)pyrimidine-4-carboxamide] | 8910
3 | CCNC(=O)c1cc(N2CCOCC2)nc(N(C)CCc2ccccc2)n1 [Example 4, N-ethyl-2-(methyl (phenethyl)amino)-6-morpholinopyrimidine-4-carboxamide] | 4570
4 | CN(CCc1ccccc1)c1nc(C(=O)NCC2CC2)cc(N2CCSCC2)n1 [Example 5, N-(cyclopropylmethyl)-2-(methyl(phenethyl)amino)-6-thiomorpholinopyrimidine-4-carboxamide] | 2630
5 | CC(C)CNC(=O)c1cc(N2CCOCC2)nc(N(C)CCc2ccccc2)n1 [Example 6, N-isobutyl-2-(methyl(phenethyl)amino)-6-morpholinopyrimidine-4-carboxamide] | 7080
6 | CCCCNC(=O)c1cc(N2CCOCC2)nc(N(C)CCc2ccccc2)n1 [Example 9, N-butyl-2-(methyl (phenethyl)amino)-6-morpholinopyrimidine-4-carboxamide] | 6760
7 | CN(CCc1ccccc1)c1nc(C(=O)NCC2CC2)cc(N2CCNCC2)n1 [Example 11, N-(cyclopropylmethyl)-2-(methyl(phenethyl)amino)-6-(piperazin-1-yl)pyrimidine-4-carboxamide] | 5370
8 | CN(CCc1ccccc1)c1nc(C(=O)NC2CC2)cc(N2CCOCC2)n1 [Example 13, N-cyclopropyl-2-(methyl (phenethyl)amino)-6-morpholinopyrimidine-4-carboxamide] | 3720
9 | CCCNC(=O)c1cc(N2CCOCC2)nc(N(C)CCc2ccccc2)n1 [Example 14, N-propyl-2-(methyl (phenethyl)amino)-6-morpholino-pyrimidine-4-carboxamide] | 1820
10 | CN(CCc1ccccc1)c1nc(C(=O)NCC2CC2)cc(N2CCN(C(=O)c3ccccc3)CC2)n1 [Example 16, 6-(4-benzoylpiperazin-1-yl)-N-(cyclopropylmethyl)-2-(methyl(phenethyl)amino)pyrimidine-4-carboxamide] | 7760
11 | CN(CCc1ccccc1)c1nc(C(=O)NCC2CC2)cc(-n2ccnc2)n1 [Example 23, N-(cyclopropylmethyl)-6-(1H-imidazol-1-yl)-2-(methyl(phenethyl)amino)pyrimidine-4-carboxamide] | 2240
12 | CN(CCc1ccccc1)c1nc(C(=O)NCC2CC2)cc(N2CCC(N(C)C)C2)n1 (stereo not drawn) [Example 33, N-(cyclopropylmethyl)-6-(3-(dimethylamino)pyrrolidin-1-yl)-2-(methyl(phenethyl)amino)pyrimidine-4-carboxamide] | 9550
13 | CN(CCc1ccccc1)c1nc(C(=O)NCCO)cc(N2CCOCC2)n1 [Example 36, N-(2-hydroxyethyl)-2-(methyl(phenethyl)amino)-6-morpholinopyrimidine-4-carboxamide] | 5010

Compounds with a lower IC50, results first:

Row | IC50 [nM] | SMILES
14 | 1660 | CN(CCc1ccccc1)c1nc(C(=O)NCC2CC2)cc(N2CC3(COC3)C2)n1 [Example 26, N-(cyclopropylmethyl)-2-(methyl(phenethyl)amino)-6-(2-oxa-6-azaspiro[3.3]heptan-6-yl)pyrimidine-4-carboxamide]
15 | 1580 | CN1CCN(c2cc(C(=O)NCC3CC3)nc(N(C)CCc3ccccc3)n2)CC1 [Example 7, N-(cyclopropylmethyl)-2-(methyl(phenethyl)amino)-6-(4-methylpiperazin-1-yl)pyrimidine-4-carboxamide]
16 | 1410 | CN(CCc1ccccc1)c1nc(C(=O)NCC2CC2)cc(N2CCC(c3ccccc3)C2)n1 (stereo not drawn) [Example 29, N-(cyclopropylmethyl)-2-(methyl(phenethyl)amino)-6-(3-phenylpyrrolidin-1-yl)pyrimidine-4-carboxamide]
17 | 1230 | O=C(NCC1CC1)c1cc(N2CCOCC2)nc(N2CCOC(c3ccccc3)C2)n1 (stereo not drawn) [Example 37, N-(cyclopropylmethyl)-6-morpholino-2-(2-phenylmorpholino)pyrimidine-4-carboxamide]
18 | 1200 | CC(=O)N1CCN(c2cc(C(=O)NCC3CC3)nc(N(C)CCc3ccccc3)n2)CC1 [Example 12, 6-(4-acetylpiperazin-1-yl)-N-(cyclopropylmethyl)-2-(methyl(phenethyl)amino)pyrimidine-4-carboxamide]
19 | 1200 | CN(CCc1ccccc1)c1nc(C(=O)NCC2CC2)cc(-n2cccn2)n1 [Example 24, N-(cyclopropylmethyl)-2-(methyl(phenethyl)amino)-6-(1H-pyrazol-1-yl)pyrimidine-4-carboxamide]
20 | 1170 | CN(CCc1ccccc1)c1nc(C(=O)NCC2CC2)cc(N2CCC(F)(F)C2)n1 [Example 31, N-(cyclopropylmethyl)-6-(3,3-difluoropyrrolidin-1-yl)-2-(methyl(phenethyl)amino)pyrimidine-4-carboxamide]
21 | 1100 | CN(Cc1ccccc1)c1cc(C(=O)NCC2CC2)nc(N(C)CCc2ccccc2)n1 [Example 28, N-(cyclopropylmethyl)-2-(methyl(phenethyl)amino)-6-(benzyl(methyl)amino)pyrimidine-4-carboxamide]
22 | 1070 | CN(CCc1cccs1)c1nc(C(=O)NCC2CC2)cc(N2CCOCC2)n1 [Example 22, N-(cyclopropylmethyl)-2-(methyl(2-(thiophen-2-yl)ethyl)amino)-6-morpholinopyrimidine-4-carboxamide]
23 | 1000 | CN(CCO)c1cc(C(=O)NCC2CC2)nc(N(C)CCc2ccccc2)n1 [Example 30, N-(cyclopropylmethyl)-6-((2-hydroxyethyl)(methyl)amino)-2-(methyl(phenethyl)amino)pyrimidine-4-carboxamide]
24 | 1000 | O=C(NCC1CC1)c1cc(N2CCOCC2)nc(N2CCN(Cc3ccccc3)C(c3ccccc3)C2)n1 (stereo not drawn) [Example 35, 2-(4-benzyl-3-phenylpiperazin-1-yl)-N-(cyclopropylmethyl)-6-morpholinopyrimidine-4-carboxamide]
25 | 912 | C#CCNC(=O)c1cc(N2CCOCC2)nc(N(C)CCc2ccccc2)n1 [Example 8, 2-(methyl(phenethyl)amino)-6-morpholino-N-(prop-2-yn-1-yl)pyrimidine-4-carboxamide]
26 | 851 | CNc1cc(C(=O)NCC2CC2)nc(N(C)CCc2ccccc2)n1 [Example 21, N-(cyclopropylmethyl)-2-(methyl(phenethyl)amino)-6-(methylamino)pyrimidine-4-carboxamide]
27 | 708 | COC1CCN(c2cc(C(=O)NCC3CC3)nc(N(C)CCc3ccccc3)n2)C1 (stereo not drawn) [Example 34, N-(cyclopropylmethyl)-6-(3-methoxypyrrolidin-1-yl)-2-(methyl(phenethyl)amino)pyrimidine-4-carboxamide]
28 | 646 | CN(CCc1ccccc1)c1nc(C(=O)NCC2CC2)cc(N2CCCCC2)n1 [Example 3, N-(cyclopropylmethyl)-2-(methyl(phenethyl)amino)-6-(piperidin-1-yl)pyrimidine-4-carboxamide]
29 | 501 | CCN(CC)c1cc(C(=O)NCC2CC2)nc(N(C)CCc2ccccc2)n1 [Example 20, N-(cyclopropylmethyl)-6-(diethylamino)-2-(methyl(phenethyl)amino)pyrimidine-4-carboxamide]
30 | 427 | CN(CCc1ccccc1)c1nc(C(=O)NCC2CC2)cc(N2CCC2)n1 [Example 25, N-(cyclopropylmethyl)-2-(methyl(phenethyl)amino)-6-(azetidin-1-yl)pyrimidine-4-carboxamide]
31 | 224 | CN(CCc1ccccc1)c1nc(C(=O)NCC2CC2)cc(N2CCCC2)n1 [Example 17, N-(cyclopropylmethyl)-2-(methyl(phenethyl)amino)-6-(pyrrolidin-1-yl)pyrimidine-4-carboxamide]
32 | 224 | CN(CCc1ccccc1)c1nc(C(=O)NCC2CC2)cc(N2CCC(O)C2)n1 (stereo not drawn) [Example 32, N-(cyclopropylmethyl)-6-(3-hydroxypyrrolidin-1-yl)-2-(methyl(phenethyl)amino)pyrimidine-4-carboxamide]
33 | 155 | CN(CCc1ccccc1)c1cc(C(=O)NCC2CC2)nc(N(C)CCc2ccccc2)n1 [Example 27, N-(cyclopropylmethyl)-2,6-bis(methyl(phenethyl)amino)pyrimidine-4-carboxamide]
